# ChEMBL document CHEMBL1137194, “Possible differences in modes of agonist and antagonist binding at human 5-HT6 receptors” (Bioorg Med Chem Lett, 2004)
# Molecular target: 5-hydroxytryptamine receptor 6 (Homo sapiens, UniProt P50406)
# Experiment: Binding affinity against 5-hydroxytryptamine 6 receptor
# 5-hydroxytryptamine receptor 6, sequence (P50406 whole entry): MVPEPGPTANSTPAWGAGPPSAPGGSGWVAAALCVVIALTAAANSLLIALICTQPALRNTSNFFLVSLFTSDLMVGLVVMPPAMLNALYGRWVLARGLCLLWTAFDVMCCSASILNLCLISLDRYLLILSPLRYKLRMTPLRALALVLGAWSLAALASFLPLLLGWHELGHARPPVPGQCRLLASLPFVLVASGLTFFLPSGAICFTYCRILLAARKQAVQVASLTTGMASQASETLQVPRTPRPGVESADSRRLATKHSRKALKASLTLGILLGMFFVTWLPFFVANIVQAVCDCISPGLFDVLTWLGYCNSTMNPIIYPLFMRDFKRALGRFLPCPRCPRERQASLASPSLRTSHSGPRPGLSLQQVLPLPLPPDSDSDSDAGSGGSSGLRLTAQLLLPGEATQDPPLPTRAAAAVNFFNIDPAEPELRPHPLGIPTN
row,SMILES,Ki
1,CN(C)CCc1cn(Cc2ccccc2)c2ccccc12,6 nM
2,CCN(CC)CCc1cn(S(=O)(=O)c2ccccc2)c2ccc(OC)cc12,6 nM
3,CN(C)CC[N+]1=CCc2ccccc21,1900 nM
4,CCCc1c(CCN(C)C)c2cc(OC)ccc2n1S(=O)(=O)c1ccccc1,2.3 nM
5,CN(C)CCn1ccc2ccccc21,> 5000 nM
6,CN(C)CCN1CCc2ccccc21,> 5000 nM
7,CN(C)CCC1=CC(Cc2ccccc2)c2ccccc21 (centres undefined),3 nM
8,COc1ccc2c(c1)c(CCN(C)C)cn2S(=O)(=O)c1ccccc1,2 nM
9,COc1ccc2c(c1)c(CCN(C)C)cn2S(=O)(=O)c1ccc(N)cc1,0.6 nM
